{"source": "patent US20080213219A1", "about": "“Methods for treatment and management of macular degeneration using 3-(4-amino-1-oxo-1,3-dihydro-isoindol-2-yl)-piperidine-2,6-dione” (Celgene Corporation, priority 2002, published 2008)", "key": {"[1]": {"tested_on": "macular degeneration", "test": "Clinical study in patients with macular degeneration, adjuvant to photodynamic therapy with verteporfin", "format": "in vivo", "conditions": "about 10 mg/day for 20 weeks as adjuvant to verteporfin photodynamic therapy", "procedure": "Immunomodulatory compounds are administered in an amount of about 0.1 to about 25 mg per day to patients with macular degeneration. In a specific embodiment, clinical studies are performed with forty patients with macular degeneration, who are divided into two groups. The first group receives conventional treatment for closing the leaking choroidal vessels (characteristic of this disease) by photodynamic therapy with verteporfin. Opthalmol 1999 (117): 1329-1345. The second group receives the same conventional therapy with verteporfin and 3-(4-amino-1-oxo-1,3-dihydro-isoindol-2-yl)-piperidine-2,6-dione in an amount of about 10 mg/day as an adjuvant for 20 weeks.\nHowever, the first group without 3-(4-amino-1-oxo-1,3-dihydro-isoindol-2-yl)-piperidine-2,6-dione experiences progressive reperfusion of the ablated vessels several weeks after treatment. Progressive visual loss follows which requires the photodynamic therapy to be repeated."}, "[2]": {"tested_on": "TNF-α production", "test": "Inhibition of TNF-α production following LPS-stimulation of human PBMC", "format": "cell-based", "conditions": "LPS-stimulated PBMC, read-out: IC50 for inhibiting production of TNF-α", "source_text": "(§1) In a specific embodiment, inhibitions of TNF-α production following LPS-stimulation of human PBMC and human whole blood by 3-(4-amino-1-oxo-1,3-dihydro-isoindol-2-yl)-piperidine-2,6-dione, 4-(amino)-2-(2,6-dioxo-(3-piperidyl))-isoindoline-1,3-dione or thalidomide were investigated in vitro."}, "[3]": {"tested_on": "TNF-α production", "test": "Inhibition of TNF-α production following LPS-stimulation of human whole blood", "format": "cell-based", "conditions": "LPS-stimulated human whole blood; read-out: IC50 for inhibiting production of TNF-α", "source_text": "as §1"}, "[4]": {"tested_on": "TNF-α, IL1β, IL6, IL10 production", "test": "LPS-stimulated cytokine production by PBMC", "format": "cell-based"}, "[5]": {"tested_on": "MD", "conditions": "cited from earlier work"}, "[6]": {"tested_on": "laser-induced CNVM", "conditions": "intravitreal injection, monkeys; cited from earlier work"}, "[7]": {"tested_on": "MD", "conditions": "intravitreal injection, one-year period, patients with MD; cited from earlier work"}}, "data": [{"molecule": "Nc1cccc2c1CN(C1CCC(=O)NC1=O)C2=O", "note": "(centres unmarked) [3-(4-Amino-1-oxo-1,3-dihydro-isoindol-2-yl)-piperidine-2,6-dione]", "values": [{"measurement": "neovascular cascade / duration of the effects of photodynamic therapy", "setting": "[1]", "result": "sufficiently hindered"}, {"measurement": "IC50", "setting": "[2]", "result": "~100", "unit": "nM"}, {"measurement": "IC50", "setting": "[3]", "result": "~480", "unit": "nM"}, {"measurement": "LPS-stimulated production of IL1β", "setting": "[4]", "result": "dose-dependent inhibition"}, {"measurement": "LPS-stimulated production of IL6", "setting": "[4]", "result": "dose-dependent inhibition"}, {"measurement": "LPS-stimulated production of TNF-α", "setting": "[4]", "result": "dose-dependent inhibition"}, {"measurement": "production of the anti-inflammatory cytokine IL10", "setting": "[4]", "result": "increased production"}]}, {"molecule": "interferon-α", "values": [{"measurement": "efficacy at treating MD", "setting": "[5]; clinical trial", "result": "ineffective"}, {"measurement": "rate of adverse effects", "setting": "[5]; in vivo", "result": "high rate of adverse effects"}]}, {"molecule": "Nc1cccc2c1C(=O)N(C1CCC(=O)NC1=O)C2=O", "note": "(centres unmarked) [4-(Amino)-2-(2,6-dioxo(3-piperidyl))-isoindoline-1,3-dione]", "values": [{"measurement": "IC50", "setting": "[2]", "result": "~24", "unit": "nM"}, {"measurement": "IC50", "setting": "[3]", "result": "~25", "unit": "nM"}, {"measurement": "LPS-stimulated production of IL1β", "setting": "[4]", "result": "dose-dependent inhibition"}, {"measurement": "LPS-stimulated production of IL6", "setting": "[4]", "result": "dose-dependent inhibition"}, {"measurement": "LPS-stimulated production of TNF-α", "setting": "[4]", "result": "dose-dependent inhibition"}, {"measurement": "production of the anti-inflammatory cytokine IL10", "setting": "[4]", "result": "increased production"}]}, {"molecule": "C[C@]12C=CC(=O)C=C1CC[C@H]1[C@@H]3C[C@@H](O)[C@](O)(C(=O)CO)[C@@]3(C)C[C@H](O)[C@@]12F", "note": "[triamcinolone]", "values": [{"measurement": "growth of laser-induced CNVM", "setting": "[6]", "result": "inhibits"}, {"measurement": "prevention of severe visual loss", "setting": "[7]", "result": "fails to prevent"}]}]}
